The target of one data set is T1, HDAC8 (Homo sapiens, UniProt Q9BY41).
T1 sequence (Q9BY41 1-377): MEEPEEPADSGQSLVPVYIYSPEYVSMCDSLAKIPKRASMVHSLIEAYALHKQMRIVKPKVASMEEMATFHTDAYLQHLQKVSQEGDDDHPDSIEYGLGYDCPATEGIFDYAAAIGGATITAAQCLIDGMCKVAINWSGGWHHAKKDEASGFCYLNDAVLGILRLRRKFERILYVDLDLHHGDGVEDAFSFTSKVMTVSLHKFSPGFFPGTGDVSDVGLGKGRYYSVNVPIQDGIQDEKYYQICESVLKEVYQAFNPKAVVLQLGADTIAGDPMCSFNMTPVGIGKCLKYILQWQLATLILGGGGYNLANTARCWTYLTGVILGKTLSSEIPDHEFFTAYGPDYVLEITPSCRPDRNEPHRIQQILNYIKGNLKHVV
Briefly: Histone deacetylase activity, continuous trypsin-coupled assay. It counts as biochemical. The conditions noted are these: 15 minutes preincubation; substrate acetyl-Gly-Ala-(N-acetyl-Lys)-AMC. On the procedure: (§1) HDAC activity was measured using a continuous trypsin-coupled assay that has been described in detail previously (US 20070281934; Schultz et. al., Biochemistry, 43 (34), 11083-11091, 2004; Kim et al. (2006), Methods Mol. Biol., 325:273-283). For inhibitor characterization, measurements were performed in a reaction volume of 100 μL using 96-well assay plates in a fluorescence plate reader. For each isozyme, the HDAC protein in reaction buffer (50 mM HEPES, 100 mM KCl, 0.001% Tween-20, 5% DMSO, pH 7.4, supplemented with bovine serum albumin at concentrations of 0-0.05%, was mixed with inhibitor at various concentrations and allowed to incubate for 15 minutes. Trypsin was added to a final concentration of 50 nM, and acetyl-Gly-Ala-(N-acetyl-Lys)-AMC was added to a final concentration of 25-100 μM to initiate the reaction. After a 30 minute lag time, the fluorescence was measured over a 30 minute time frame using an excitation wavelength of 355 nm and a detection wavelength of 460 nm. The increase in fluorescence with time was used as the measure of the reaction rate. Inhibition constants Ki(app) were obtained using the program BatchKi (Biokin, Pullman, Wash.).

Another data set has as its target T2, HDAC6 (Homo sapiens, UniProt Q9UBN7).
T2 sequence (Q9UBN7 1-1215): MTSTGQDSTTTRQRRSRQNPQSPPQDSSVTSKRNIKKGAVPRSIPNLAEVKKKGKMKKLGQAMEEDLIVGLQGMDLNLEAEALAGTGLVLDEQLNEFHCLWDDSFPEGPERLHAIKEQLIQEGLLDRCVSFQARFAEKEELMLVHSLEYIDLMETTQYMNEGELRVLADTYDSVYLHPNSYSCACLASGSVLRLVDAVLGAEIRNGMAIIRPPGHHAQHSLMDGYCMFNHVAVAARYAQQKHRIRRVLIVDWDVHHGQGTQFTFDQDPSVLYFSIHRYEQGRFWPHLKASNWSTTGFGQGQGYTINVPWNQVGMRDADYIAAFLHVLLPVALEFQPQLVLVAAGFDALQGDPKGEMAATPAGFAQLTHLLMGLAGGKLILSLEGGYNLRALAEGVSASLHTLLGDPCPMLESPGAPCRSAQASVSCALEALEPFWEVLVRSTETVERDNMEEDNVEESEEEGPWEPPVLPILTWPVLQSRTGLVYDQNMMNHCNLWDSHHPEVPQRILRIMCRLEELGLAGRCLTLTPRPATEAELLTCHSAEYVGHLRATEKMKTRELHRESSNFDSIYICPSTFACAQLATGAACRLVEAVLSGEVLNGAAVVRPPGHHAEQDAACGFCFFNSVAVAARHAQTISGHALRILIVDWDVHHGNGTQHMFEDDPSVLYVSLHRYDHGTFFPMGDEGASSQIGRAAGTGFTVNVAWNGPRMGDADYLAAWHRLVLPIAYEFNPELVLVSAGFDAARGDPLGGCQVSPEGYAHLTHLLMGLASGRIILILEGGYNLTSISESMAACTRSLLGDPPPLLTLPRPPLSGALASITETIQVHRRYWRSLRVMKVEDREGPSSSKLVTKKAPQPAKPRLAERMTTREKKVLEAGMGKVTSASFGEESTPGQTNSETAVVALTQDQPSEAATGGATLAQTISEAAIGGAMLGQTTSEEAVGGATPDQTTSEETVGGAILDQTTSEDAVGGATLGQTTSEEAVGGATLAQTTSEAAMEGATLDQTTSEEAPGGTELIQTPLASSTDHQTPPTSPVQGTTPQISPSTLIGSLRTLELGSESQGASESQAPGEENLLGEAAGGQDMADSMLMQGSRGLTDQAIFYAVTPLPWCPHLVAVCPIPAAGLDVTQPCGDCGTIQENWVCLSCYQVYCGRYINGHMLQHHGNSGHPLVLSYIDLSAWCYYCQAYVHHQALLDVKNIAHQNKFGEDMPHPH
The description is as above. It counts as biochemical. The conditions noted are these: 15 minutes preincubation; substrate acetyl-Gly-Ala-(N-acetyl-Lys)-AMC. The protocol:
as §1

A further data set deals with T3, HDAC10 (Homo sapiens, UniProt Q969S8).
T3 sequence (Q969S8 1-669): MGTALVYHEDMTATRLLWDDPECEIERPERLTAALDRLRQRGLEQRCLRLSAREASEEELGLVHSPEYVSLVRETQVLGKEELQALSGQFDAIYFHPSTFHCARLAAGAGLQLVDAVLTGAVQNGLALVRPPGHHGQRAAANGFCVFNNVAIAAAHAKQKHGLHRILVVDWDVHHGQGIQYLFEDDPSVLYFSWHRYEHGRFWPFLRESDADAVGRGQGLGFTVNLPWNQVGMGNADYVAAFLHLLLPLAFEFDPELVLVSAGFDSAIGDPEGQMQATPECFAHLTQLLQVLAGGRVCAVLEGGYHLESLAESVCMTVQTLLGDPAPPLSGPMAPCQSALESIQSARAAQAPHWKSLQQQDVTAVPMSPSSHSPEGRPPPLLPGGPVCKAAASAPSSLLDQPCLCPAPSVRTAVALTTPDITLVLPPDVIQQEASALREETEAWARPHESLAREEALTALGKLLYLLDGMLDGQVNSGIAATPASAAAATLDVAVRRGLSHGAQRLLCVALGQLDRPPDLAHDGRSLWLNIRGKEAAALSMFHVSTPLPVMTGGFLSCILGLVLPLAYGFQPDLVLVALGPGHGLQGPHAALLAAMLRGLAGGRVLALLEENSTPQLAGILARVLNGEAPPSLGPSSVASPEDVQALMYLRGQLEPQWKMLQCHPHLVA
Described as above. Type of data set: biochemical. The settings on record: 15 minutes preincubation; substrate acetyl-Gly-Ala-(N-acetyl-Lys)-AMC. The protocol: as §1

The target in a further data set is HDAC1 (Homo sapiens, UniProt Q13547). Described as above. It counts as biochemical. The conditions noted are these: 15 minutes preincubation; substrate acetyl-Gly-Ala-(N-acetyl-Lys)-AMC. On the procedure:
as §1

The subject of a further data set is Jurkat cells. Briefly: Cell proliferation assay, growth inhibition by Alamar Blue. It counts as cell-based. The settings on record: Homo sapiens, 72 h, Jurkat cells treated with compound for 3 days. The protocol: Cell lines were obtained from DSMZ (Braunschweig, Germany) or ATCC (Manassas, Va.). Cells were grown in RPMI 1640 with 10% fetal bovine serum in a 5% CO2/air incubator at 37° C. Thapsigargin and BAPTA-AM were from Calbiochem (San Diego, Calif.). 3-((dimethylamino)methyl)-N-(2-(4-(hydroxycarbamoyl)phenoxy)ethyl)benzofuran-2-carboxamide is a broad-spectrum HDAC inhibitor which was synthesized as previously described. Other analogs with varying degrees of specificity towards the HDAC isoforms were synthesized as described herein.
Tumor cell lines and human umbilical vein endothelial cells (HUVEC) were cultured for at least two doubling times, and growth was monitored at the end of compound exposure using an Alamar Blue™ (Biosource, Camarillo, Calif.) fluorometric cell proliferation assay as recommended by the manufacturer. Compounds were assayed in triplicate wells in 96-well plates. The concentration required to inhibit cell growth by 50% (GI50) and 95% confidence intervals were estimated from nonlinear regression using a 4-parameter logistic equation. The effect of HDAC8 selective inhibitor compounds on cell proliferation in Jurkat cells was measured. Apoptosis was measured by Annexin-V flow cytommetry. Growth inhibition was measured by Alamar Blue assay. Cells were treated with compound for 3 days.
On the technique in general: The colour change of resazurin is a common sign of viable cells or microbes.

A further data set deals with HDAC2 (Homo sapiens, UniProt Q92769). Briefly: Histone deacetylase activity, continuous trypsin-coupled assay. Type of data set: biochemical. The settings on record: 15 minutes preincubation; substrate acetyl-Gly-Ala-(N-acetyl-Lys)-AMC. On the procedure: as §1
Sequence of HDAC2 (Q92769 whole entry, species assumed): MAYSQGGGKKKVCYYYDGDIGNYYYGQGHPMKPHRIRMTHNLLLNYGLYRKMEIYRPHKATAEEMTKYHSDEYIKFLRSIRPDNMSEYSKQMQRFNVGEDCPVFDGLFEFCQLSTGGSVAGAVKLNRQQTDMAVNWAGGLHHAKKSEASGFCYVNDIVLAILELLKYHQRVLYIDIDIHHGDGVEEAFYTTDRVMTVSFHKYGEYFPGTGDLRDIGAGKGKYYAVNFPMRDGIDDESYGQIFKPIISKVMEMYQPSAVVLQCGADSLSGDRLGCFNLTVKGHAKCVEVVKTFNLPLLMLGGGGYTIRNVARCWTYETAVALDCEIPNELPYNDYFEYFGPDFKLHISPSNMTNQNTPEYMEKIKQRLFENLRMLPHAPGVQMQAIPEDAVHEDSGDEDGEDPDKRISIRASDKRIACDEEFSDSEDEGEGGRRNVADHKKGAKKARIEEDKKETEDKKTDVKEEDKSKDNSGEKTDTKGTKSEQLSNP
In another data set the target is HDAC3 (Homo sapiens, UniProt O15379). The description is as above. It counts as biochemical. The settings on record: 15 minutes preincubation; substrate acetyl-Gly-Ala-(N-acetyl-Lys)-AMC. On the procedure:
as §1

Data set [1] in a line: Pharmacokinetic analysis in male rats, oral gavage. It counts as in vivo. The settings on record: CD IGS (Sprague-Dawley derived), rat, plasma, orally at 3 mg/kg, compounds administered in combination. The protocol: This study, performed in male rats with test compounds (Compound 303 and Compound 316), was designed to provide preliminary information on their pharmacokinetics. The test compounds were administered in combination by oral gavage.
The specifications for rats used on this study are as follows: • Strain: CD® IGS rats (Sprague-Dawley derived) • Source: Charles River Laboratories • Surgical modification for oral dosing: One portal vein cannula and one jugular vein cannula • Body weight range at dosing 350 to 375 g
The rats were acclimatized to laboratory conditions for at least 24 hours before dosing. The evening before dosing, food was withheld from the rats and was returned immediately following the 3-hour blood collection time point. Water was provided ad libitum. The rats were housed individually in translucent polycarbonate cages.
Test compounds were prepared as 3.0 mg/ml solutions (1% MC/0.4% Cr EL in WFI).
Rats were administered a single dose of test compound in combination by oral gavage. Dose volumes were adjusted based on body weight data collected immediately prior to dosing.
The dose volume was 1 ml/kg and the nominal dosage was 3 mg/kg.
Blood samples were collected at 5 minutes, 20 minutes, 1 hour, 3 hours, 6 hours, 9 hours, and 24 hours post-dosing from orally dosed rats. The samples were collected into plasma separator Microtainer tubes with anticoagulant (lithium heparin). Plasma samples were prepared by centrifugation (5 min at 5000×g), and at least 100 μL were transferred to storage tubes and frozen on dry ice. Samples were maintained at approximately −75 C until prepared for analysis.
Plasma samples were thawed and 75 uL aliquots were transferred to centrifuge tubes to which 10 μL aliquots of internal standard solution (0.5 μg/mL) were added. The samples were not diluted with blank plasma prior to further processing. Soluble proteins were precipitated by the addition of 300 μL of methanol, followed by centrifugation (20 min at 16,000×g). The samples were evaporated to dryness and reconstituted in 100 μL of water containing 0.2% formic acid and 10% methanol. All samples were loaded onto an autosampler maintained at 6° C. and evaluated for concentrations of test compound using LC-MS/MS. lasma concentration data were evaluated using the computer program WinNonlin (Professional Edition, Pharsight Corporation, version 5.01). […]
Pan HDAC inhibitor 3-((dimethylamino)methyl)-N-(2-(4-(hydroxycarbamoyl)phenoxy)ethyl)benzofuran-2-carboxamide was added to the cassette to serve as a standard since the pharmacokinetics of this compound have been determined previously in rats. The UC's determined for rats administered Compound 303 and Compound 316 orally at 3 mg/kg were 1.42, and 5.36 μg·h/mL, respectively. […]

The record followed here is US8466193B2, “Selective inhibitors of histone deacetylase” (Pharmacyclics, Inc., priority 2008, dated 2013).

Sequence of HDAC3 (O15379 whole entry, species assumed): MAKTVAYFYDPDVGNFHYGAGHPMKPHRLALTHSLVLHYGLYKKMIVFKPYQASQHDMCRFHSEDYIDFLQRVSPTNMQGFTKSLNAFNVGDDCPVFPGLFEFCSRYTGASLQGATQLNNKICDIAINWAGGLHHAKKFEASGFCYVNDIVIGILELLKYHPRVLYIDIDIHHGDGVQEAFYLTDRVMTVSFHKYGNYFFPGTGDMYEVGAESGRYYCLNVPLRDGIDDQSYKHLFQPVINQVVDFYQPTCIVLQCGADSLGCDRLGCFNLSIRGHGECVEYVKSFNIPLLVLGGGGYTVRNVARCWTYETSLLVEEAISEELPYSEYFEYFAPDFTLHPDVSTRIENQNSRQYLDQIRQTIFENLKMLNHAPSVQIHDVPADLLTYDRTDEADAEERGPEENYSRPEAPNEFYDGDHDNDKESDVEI
Sequence of HDAC3 (Q9Y618 395-489 partner limits assumed, species assumed): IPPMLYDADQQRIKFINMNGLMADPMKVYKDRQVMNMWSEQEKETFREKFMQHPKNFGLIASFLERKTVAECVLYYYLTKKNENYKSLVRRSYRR
Sequence of HDAC1 (Q13547 whole entry, species assumed): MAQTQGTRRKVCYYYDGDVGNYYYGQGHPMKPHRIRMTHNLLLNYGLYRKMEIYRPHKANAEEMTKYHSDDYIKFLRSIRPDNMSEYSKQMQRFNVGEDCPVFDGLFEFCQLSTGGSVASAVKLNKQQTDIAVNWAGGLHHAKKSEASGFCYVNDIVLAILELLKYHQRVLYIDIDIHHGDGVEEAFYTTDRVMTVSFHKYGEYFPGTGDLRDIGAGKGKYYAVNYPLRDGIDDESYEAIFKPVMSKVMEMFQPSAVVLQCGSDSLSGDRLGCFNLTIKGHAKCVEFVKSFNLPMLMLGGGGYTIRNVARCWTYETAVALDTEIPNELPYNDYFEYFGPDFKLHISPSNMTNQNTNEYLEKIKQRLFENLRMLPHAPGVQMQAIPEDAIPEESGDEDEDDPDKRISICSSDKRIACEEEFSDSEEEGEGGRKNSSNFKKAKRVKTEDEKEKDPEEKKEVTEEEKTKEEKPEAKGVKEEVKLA

For the compound `O=C(NO)c1ccc2ccn(CCOc3ccccc3CN3CCOCC3)c2c1` [Compound 326, N-hydroxy-1-(2-(2-(morpholin-4-ylmethyl)phenoxy)ethyl)-1H-indole-6-carboxamide], the IC50 (commonly the concentration that gives 50% inhibition) is less than 1 µM on HDAC8, greater than 10 µM at HDAC6, greater than 10 µM at HDAC10 and greater than 10 µM against HDAC1.

Turning to `CN(C)Cc1ccc(OCCn2ccc3ccc(C(=O)NO)cc32)cc1` [Compound 325, N-hydroxy-1-(2-(4-(dimethylaminomethyl)phenoxy)ethyl)-1H-indole-6-carboxamide], the GI50 – broadly, the concentration that inhibits growth by half – in the data set on Jurkat cells was found to be 13.4 µM. The IC50 on HDAC2 was greater than 10 µM; on HDAC3, greater than 10 µM; on HDAC8, less than 1 µM; against HDAC6, 1 to 10 µM; at HDAC10, greater than 10 µM; against HDAC1 it was greater than 10 µM.

In the case of `CN(C)Cc1cccc(OCCn2ccc3ccc(C(=O)NO)cc32)c1` [Compound 324, N-hydroxy-1-(2-(3-(dimethylaminomethyl)phenoxy)ethyl)-1H-indole-6-carboxamide], in the data set on Jurkat cells, the GI50 came to 7.4 µM. Also, the IC50 against HDAC2 is greater than 10 µM; against HDAC3 it was greater than 10 µM; on HDAC8, less than 1 µM; against HDAC6 it was 1 to 10 µM; against HDAC10, greater than 10 µM; against HDAC1, greater than 10 µM.

For the compound `O=C(NO)c1ccc2ccn(CCOc3cccc(CN4CCOCC4)c3)c2c1` [Compound 327, N-hydroxy-1-(2-(3-(morpholin-4-ylmethyl)phenoxy)ethyl)-1H-indole-6-carboxamide], in the data set on Jurkat cells, the GI50 was 4.95 µM. For the same compound, the IC50 at HDAC2 is greater than 10 µM; on HDAC3, greater than 10 µM; against HDAC8, less than 1 µM; on HDAC6, 1 to 10 µM; against HDAC10 it was greater than 10 µM; against HDAC1 it was greater than 10 µM.

Regarding `O=C(Cn1ccc2ccc(C(=O)NO)cc21)Nc1ccccc1` [Compound 329, N-hydroxy-1-(2-oxo-2-(phenylamino)ethyl)-1H-indole-6-carboxamide], in the data set on Jurkat cells, the 50% growth inhibitory concentration (GI50) is 20.7 µM. Moreover, the IC50 at HDAC2 is greater than 10 µM; at HDAC3, greater than 10 µM; at HDAC8 it was less than 1 µM; at HDAC6, greater than 10 µM; at HDAC10, greater than 10 µM; on HDAC1, greater than 10 µM.

In the case of `O=C(NO)c1ccc2ccn(CCCc3ccccc3)c2c1` [Compound 303, N-hydroxy-1-(3-phenyl-propyl)-1H-indole-6-carboxamide], in data set [1], the AUC – broadly, the area under the concentration-time curve, a measure of exposure – turned out to be 1420 ng·h/mL and the highest concentration (Cmax) (usually the maximum level reached in the sampled fluid or tissue) turned out to be 310 ng/mL. The 50% growth inhibitory concentration (GI50) in the data set with Jurkat cells is 3.5 µM.
